Earlier results on 1 compound are cited in US12582603B2 (NTC S.r.l., priority 2017, dated 2026).

The conditions of this data set: at a pH of 6.4.

Consider `Brc1c(N=C2NCCN2)ccc2nccnc12.O=C(O)C(O)C(O)C(=O)O` [Brimonidine, 5-Bromo-6-(2-imidazolidinylideneamino)quinoxaline L-tartrate], for which the Fraction ionized result is listed as “about 90%”.
